row,SMILES,melting point
1,Nc1cccc(Oc2cccc(Oc3cccc(N)c3)n2)c1,118 to 120 °C
2,CC(C)C(=O)NCCNCC(O)COc1ccc(O)c(CO)c1 (stereo not given),148 to 149 °C
3,CCCCc1nn(-c2cccc([N+](=O)[O-])c2)c(=O)n1Cc1ccc(-c2ccccc2S(=O)(=O)NC(C)(C)C)cc1,164 to 165 °C
4,Cc1cc(CCCCCCCOc2ccc(C3=NCCO3)cc2Cl)on1,88 °C
5,Cc1cccc(S(=O)(=O)NC(=O)NCCCCCCN)c1,187 °C
6,CSCCC(NC(=O)OCc1ccccc1)C(N)=O (racemic),120 to 122 °C
7,Cn1c(=O)oc2cc3c(cc21)C1(CO3)C(=O)N(C(c2ccccc2)c2ccccc2)c2ccccc21 (stereo not given),> 250 °C
8,CC(C)(NC(=O)CCS)C(=O)O,169 to 170 °C
9,CC1(C)COc2ccc(F)cc2C(O)(c2ccccn2)C1 (stereo not given),110 °C
10,COc1ccc(-c2nc(N(C)C)c3c(C)c(C#N)sc3n2)cc1,123 to 125 °C
11,FC(F)(F)c1cc(Cl)c(-n2cnc(I)n2)c(Cl)c1,130 to 132 °C
12,CCCCCCCCCCCC1=NC(=Cc2[nH]c(-c3ccc[nH]3)cc2OCC)C=C1,94 to 96 °C
13,CCOC(=O)Cc1c(-c2ccccc2)[nH]c2ccccc12,61 to 62 °C
14,N#Cc1cccc2c1CCC2O (stereo not given),98 °C
15,COc1ccc(-c2ccc3c(c2)c(C)c(-c2ccccc2)n3Cc2ccccc2)cc1,117 to 122 °C
16,CC(N=[N+]=[N-])C(=O)c1nc(C(C)(C)C)c(O)c(C(C)(C)C)n1 (stereo not given),91 to 92 °C

row,SMILES,melting point
1,CC(C)[C@H](NC(=O)N(C)Cc1csc(NC(=O)OC(C)(C)C)n1)C(=O)N[C@@H](Cc1ccccc1)C[C@H](O)[C@H](Cc1ccccc1)NC(=O)OCc1cccnc1,103 to 105 °C
2,C[C@@H]1C(=O)C[C@H]2C[C@@H]1OO[C@@]2(C)/C=C/c1c(F)c(F)c(F)c(F)c1F,128 °C
3,O[C@@]1(c2ccc(Cl)c(Cl)c2)CCC[C@H]2NCC[C@H]21 (racemic),190 to 191 °C
4,Cc1c(NC(=O)c2cccc(OCC(=O)OC(C)(C)C)c2)c2ccccn2c1C(=O)c1ccc(NC(=O)C(F)(F)F)c(C(=O)OCc2ccccc2)c1,200 °C
5,S=c1[nH]ccn1C1CCCc2ccccc21 (stereo not given),188 to 189 °C
6,CC(C)(C)NS(=O)(=O)c1cccc2c1CSC2,128 to 132 °C
7,CC(Cn1ccnc1)Cn1nnc2ccc(Cl)cc2c1=O (stereo not given),100 to 102 °C
8,CCCCn1c(NNC(=S)NC(C)=O)cc(=O)n(CCC)c1=O,149 to 152 °C
9,Nc1c(F)c(Cl)c(O)c(Cl)c1F,151 °C
10,N#Cc1ccc2cc(Cc3cc4ccc(C#N)cc4o3)oc2c1,207 to 209 °C
11,CCCCCCCCCCCCCCCCCCC1CC(=O)N(c2ccc(N)cc2O)C1=O (stereo not given),85 to 90 °C
12,O=[N+]([O-])c1ccc2[nH]c(C(F)(F)F)cc2c1,190 to 193 °C
13,NCCCCn1cnc(-c2ccccc2)c1,130 to 132 °C
14,COC(=O)C(C)(C)Cc1c(C(=O)c2ccc(Cl)cc2)c2ccc(OC(=O)c3ccc(Cl)cc3)cc2n1C,138 °C
15,CCOCCc1ccc(OCCNc2ncnc3scc(C)c23)c(C)c1,55 to 57 °C

# Second part, the compound after the results:
row,melting point,SMILES
1,245 to 247 °C,Cc1cc(=O)[nH]nc1-c1ccc(-c2ccc(F)cc2)cc1
2,133 to 137 °C,COc1nc(C)cnc1N(C(=O)OCC(C)C)S(=O)(=O)c1cccnc1-c1ccc(CC(C)C)cc1
3,229 to 231 °C,O=C1c2ccccc2N(N2CCCCC2)C2=NCCN12
4,178 to 184 °C,O=C(CN1CCOCC1)Nc1ccc(-n2nc(C3CC3)cc2C2CC2)cc1
5,262 to 265 °C,CC(C)(Cn1c(CO)nc2c(N)nc3ccccc3c21)NS(C)(=O)=O
6,143 to 145 °C,CC(C)(C)OC(=O)NCCN1C(=O)c2ccccc2C1=O
7,270 to 271 °C,CN(Cc1ccc(NC(=O)C2=Cc3cc(-c4cc5ccccc5s4)ccc3S(=O)(=O)CC2)cc1)C1CCOCC1
8,111 to 112 °C,CCOC(=O)CNc1ncccc1NC(=O)c1ccccc1OC
9,180 to 182 °C,CC(=O)N1CCN=C1Nc1cccc2c1CCC2
10,88 °C,COc1ccc(C2CCCN(C(=O)C(F)(F)F)C2)cc1 (stereo not given)
11,181 to 183 °C,O=C1C=CC(=O)C(C(=O)CCn2sc(Cl)cc2=O)=C1
12,156 to 158 °C,CCCOc1ccc(N2CCCn3c2nc2c(Cl)ccc(C(OC(F)F)C(F)(F)F)c23)c(C)n1 (stereo not given)
13,175 to 178 °C,CC(C)=NNc1cc2c(nn1)CCN(C(=O)C1CCC1)C2
14,218 to 220 °C,COc1cc(C(=O)O)c(C(=O)O)c(Cl)c1Cl
15,224 to 226 °C,CN1CCC[C@H]1c1ccc(Cl)cc1P(c1cccc2ccccc12)c1cccc2ccccc12
16,183 to 185 °C,CCOC(=O)Cc1c(C(=O)O)c(Br)c(C(=O)c2ccc(Cl)cc2)n1C
17,189 to 190 °C,COc1ccc2c(c1)C1(CCCCc3ccccc31)NC2=O (stereo not given)
18,232 °C,Cc1ccc(C(=O)Nc2cc(C(F)(F)F)ccn2)cc1/C=C/n1cnc2c(NC3CC3)ncnc21
19,165 °C,CCOC(=O)Cn1c2c([nH]c(=O)c1=O)CCC1=C2C=C(n2ccc(C(=O)NCc3ccc([N+](=O)[O-])cc3)c2)CC1
20,122 to 135 °C,CCc1nc2cc(C(=O)NC)c(Cl)cc2n1-c1ccc(CCNC(=O)NS(=O)(=O)c2ccc(C)cc2)cc1

row,melting point,SMILES
1,88 to 92 °C,COc1cccc(C2C(CN(C)C)CC(=O)N2c2ccccc2)c1 (stereo not given)
2,168 to 170 °C,CS(=O)(=O)c1ccc(-c2sc(C(F)(F)F)nc2-c2ccc(F)cc2)cc1
3,154 °C,Cc1ccccc1C(=O)COc1c(C(=O)c2ccc(Cl)c(C)c2Cl)c(C)nn1C
4,135 to 143 °C,CC(CC(=O)O)NC(=O)OCC1c2ccccc2-c2ccccc21 (stereo not given)
5,200 °C,COC(=O)CC1=CN=C(SC)NC1(C)O (stereo not given)
6,73 to 74 °C,COC(=O)Oc1ccc(C(=O)CBr)c(OC(=O)OC)c1
7,123 to 125 °C,COC(=O)C1C=CCn2c(=O)n(CO)c(=O)n21 (stereo not given)
8,171 to 174 °C,O=C(NC1CCC1)c1ccc(-c2ccc3nnn(Cc4ccc5ncccc5c4)c3n2)cc1F
9,240 to 241 °C,CC(=O)c1cc(Nc2cc(C)nc(N)n2)cc(C(C)=O)c1
10,176 to 178 °C,CC(C)(C(=O)O)c1cn2nc(CCCN3CCN(C(c4ccccc4)c4ccccc4)CC3)ccc2n1
11,136 to 139 °C,COc1c(N2CCNC(C3CC3)C2)c(F)cc2c(=O)c(C(=O)O)cn([C@@H]3C[C@@H]3F)c12 (stereo not given in full)
12,164 to 166 °C,O=C1CC(c2ccc3oc4c(c3c2)CCCC4)CC(=O)O1
13,119 to 121 °C,O=C(NC1CCc2ccccc2CC1=O)OCc1ccccc1 (stereo not given)
14,75.6 to 80.4 °C,CC(C)(C)OC(=O)N1CCc2c(Br)cccc2C1
15,181 to 183 °C,CC(C)(C1CCCCC1)C(NC(=O)c1ccc(Cl)cc1)NC(=NC#N)Nc1cccnc1 (stereo not given)
16,215 °C,CC(n1ncn(-c2ccc(N3CCN(c4ccc(O)cc4)CC3)cc2)c1=O)C(F)(F)F (stereo not given)
17,151 to 152 °C,CC1(C)CC(S(=O)(=O)Cc2c(C(F)(F)F)nn3c2OCCC3)=NO1
18,167 to 168 °C,O=c1ccn(-c2cccc(C(F)(F)F)c2)nc1-c1ncnn1-c1ccccc1
19,156 °C,CCOC(=O)COCC1CCCN(C(=O)c2cnc(NC(=N)N)s2)C1 (racemic)
